Consider 4 compounds from patent US20110060043A1, “INHIBITORS OF CELL PROLIFERATION AND USES THEREOF” (European Molecular Biology Laboratory (EMBL), priority 2008, published 2011).

The assay relates to MCF-7 cells. The assay is described as follows: Cytotoxicity assay (ATPLite cell viability, 72 h) on MCF-7 cells. Type of assay: cell-based. As to conditions: Homo sapiens, MCF7; 72 hours incubation, triplicate, ATP levels (ATPLite), inhibition of growth vs DMSO only control. The procedure: Preferred compounds were analyzed for their ability to inhibit growth of tumour cells (e.g. MCF7, HL60, LL2, HeLa, PC-3, A549 and A375 cells) in vitro. Growth inhibition was tested at various concentrations in a 10 point two fold serial dilution and cells were incubated under standard mammalian tissue culture conditions for 72 hours in triplicate. Cell viability was measured by measuring ATP levels in viable cells using the ATPLite kit (PerkinElmer) as described in the user manual. Raw data was transformed to percentage inhibition of growth compared to a DMSO only control and values were expressed as IC50 in micromolar calculated using XLfit (IDBS).
(ATP-based viability assays read luminescence as a measure of living cells.)

One may read the IC50 as the concentration that inhibits the measured activity by half. A lower IC50 goes with greater potency in that assay. For the compound `CCOc1ccc(S(=O)(=O)Nc2cc(C(=O)OC)ccc2C)cc1` [Compound (V), 3-[[(4-ethoxyphenyl)sulfonyl]amino]-4-methyl-benzoic acid methyl ester], half-maximal inhibition (IC50) was put at 160 nM. The figure for `COC(=O)c1ccc(C)c(NS(=O)(=O)c2ccc(Cl)cc2)c1` [Compound (VI), 3-[[(4-chlorophenyl)sulfonyl]amino]-4-methyl-benzoic acid methyl ester] is 1100 nM; for `COC(=O)c1ccc(C)c(NS(=O)(=O)c2ccc(C)cc2)c1` [Compound (IX), 3-[[(4-methylphenyl)sulfonyl]amino]-4-methyl-benzoic acid methyl ester] it is 280 nM; for `COC(=O)c1ccc(C)c(NS(=O)(=O)c2ccc(OC)cc2)c1` [Compound (IV), 3-[[(4-methoxyphenyl)sulfonyl]amino]-4-methyl-benzoic acid methyl ester] it is 230 nM.
